Reference: ChEMBL document CHEMBL5465560, “Selectivity Literature for EUbOPEN Chemogenomic Library” (2024)
Residue numbers refer to the chain shown, from its start. One block for each compound: values may come before it.

What was measured:
Details in all cases: at 1 µM
[1] = tested on: T1, Receptor-type tyrosine-protein kinase FLT3 (Homo sapiens), P36888 [K663Q]; test: (§1) Selectivity interaction (KinomeScan (DiscoverX)) EUB0001049a FLT3
T1 sequence (whole entry): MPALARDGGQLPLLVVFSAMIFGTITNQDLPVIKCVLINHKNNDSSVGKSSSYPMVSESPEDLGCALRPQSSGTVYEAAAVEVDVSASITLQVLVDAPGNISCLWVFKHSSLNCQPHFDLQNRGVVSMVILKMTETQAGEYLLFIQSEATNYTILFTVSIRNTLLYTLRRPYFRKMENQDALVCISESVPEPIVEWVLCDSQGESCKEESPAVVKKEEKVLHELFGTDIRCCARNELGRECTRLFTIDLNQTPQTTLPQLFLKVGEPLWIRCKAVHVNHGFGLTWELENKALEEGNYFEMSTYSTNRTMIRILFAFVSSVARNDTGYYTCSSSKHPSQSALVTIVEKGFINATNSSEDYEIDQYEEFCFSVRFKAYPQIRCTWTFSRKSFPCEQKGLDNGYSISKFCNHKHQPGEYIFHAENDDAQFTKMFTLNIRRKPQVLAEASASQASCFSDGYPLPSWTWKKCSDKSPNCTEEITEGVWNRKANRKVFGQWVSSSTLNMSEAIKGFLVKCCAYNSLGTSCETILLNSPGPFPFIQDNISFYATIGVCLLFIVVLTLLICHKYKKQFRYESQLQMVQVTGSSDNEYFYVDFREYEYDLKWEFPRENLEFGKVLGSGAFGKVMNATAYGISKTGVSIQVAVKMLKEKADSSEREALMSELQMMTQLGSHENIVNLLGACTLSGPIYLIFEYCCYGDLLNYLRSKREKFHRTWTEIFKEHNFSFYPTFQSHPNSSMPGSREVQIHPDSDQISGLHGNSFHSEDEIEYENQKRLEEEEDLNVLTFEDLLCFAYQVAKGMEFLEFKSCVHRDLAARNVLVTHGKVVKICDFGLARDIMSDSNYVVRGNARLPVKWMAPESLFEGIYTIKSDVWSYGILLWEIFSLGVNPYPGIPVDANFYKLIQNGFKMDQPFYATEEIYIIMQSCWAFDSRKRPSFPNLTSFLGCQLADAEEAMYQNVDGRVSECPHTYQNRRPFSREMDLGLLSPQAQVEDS

[2] = tested on: T2, Receptor-type tyrosine-protein kinase FLT3 (Homo sapiens), P36888 [N841I]; test: as §1
T2 sequence (whole entry): T1 sequence (whole entry) with Q663K, N841I

[3] = target: Ephrin type-A receptor 2 (Homo sapiens) (UniProt P29317); test: Selectivity interaction (Ambit KINOMEscan and KiNATiv profiling in Jurkat cells) EUB0000090b EPHA2; format: cell-based
[4] = target: T3, Ephrin type-A receptor 1 (Homo sapiens) (UniProt P21709); test: Selectivity interaction (Upstate Kinase Profiler service (Millipore)) EUB0000056c EPHA1
T3 sequence (whole entry): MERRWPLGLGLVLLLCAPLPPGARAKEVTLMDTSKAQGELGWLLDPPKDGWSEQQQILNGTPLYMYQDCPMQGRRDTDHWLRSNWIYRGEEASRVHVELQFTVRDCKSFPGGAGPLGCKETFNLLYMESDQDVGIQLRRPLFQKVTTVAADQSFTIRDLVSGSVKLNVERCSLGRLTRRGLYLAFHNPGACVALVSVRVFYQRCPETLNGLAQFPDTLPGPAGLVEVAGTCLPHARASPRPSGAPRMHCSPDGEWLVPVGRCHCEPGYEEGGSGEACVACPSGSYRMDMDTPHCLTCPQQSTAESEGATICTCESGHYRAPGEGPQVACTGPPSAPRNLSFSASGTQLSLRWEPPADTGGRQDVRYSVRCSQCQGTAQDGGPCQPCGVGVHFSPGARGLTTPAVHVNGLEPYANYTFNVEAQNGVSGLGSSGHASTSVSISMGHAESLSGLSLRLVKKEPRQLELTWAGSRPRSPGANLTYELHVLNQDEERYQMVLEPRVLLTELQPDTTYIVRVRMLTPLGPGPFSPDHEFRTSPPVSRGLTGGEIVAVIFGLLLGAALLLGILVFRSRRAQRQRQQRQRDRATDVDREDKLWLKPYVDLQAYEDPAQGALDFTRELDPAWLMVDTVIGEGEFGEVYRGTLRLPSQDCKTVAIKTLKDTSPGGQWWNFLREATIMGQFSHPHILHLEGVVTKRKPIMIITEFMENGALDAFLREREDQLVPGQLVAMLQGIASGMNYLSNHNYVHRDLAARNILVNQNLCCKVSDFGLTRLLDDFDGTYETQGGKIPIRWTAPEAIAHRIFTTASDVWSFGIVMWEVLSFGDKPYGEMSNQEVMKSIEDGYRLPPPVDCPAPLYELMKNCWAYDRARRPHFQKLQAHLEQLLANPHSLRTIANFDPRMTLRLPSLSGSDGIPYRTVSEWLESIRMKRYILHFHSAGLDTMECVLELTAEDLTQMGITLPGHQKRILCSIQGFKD

Sequence of Ephrin type-A receptor 2 (Homo sapiens) (P29317 whole entry): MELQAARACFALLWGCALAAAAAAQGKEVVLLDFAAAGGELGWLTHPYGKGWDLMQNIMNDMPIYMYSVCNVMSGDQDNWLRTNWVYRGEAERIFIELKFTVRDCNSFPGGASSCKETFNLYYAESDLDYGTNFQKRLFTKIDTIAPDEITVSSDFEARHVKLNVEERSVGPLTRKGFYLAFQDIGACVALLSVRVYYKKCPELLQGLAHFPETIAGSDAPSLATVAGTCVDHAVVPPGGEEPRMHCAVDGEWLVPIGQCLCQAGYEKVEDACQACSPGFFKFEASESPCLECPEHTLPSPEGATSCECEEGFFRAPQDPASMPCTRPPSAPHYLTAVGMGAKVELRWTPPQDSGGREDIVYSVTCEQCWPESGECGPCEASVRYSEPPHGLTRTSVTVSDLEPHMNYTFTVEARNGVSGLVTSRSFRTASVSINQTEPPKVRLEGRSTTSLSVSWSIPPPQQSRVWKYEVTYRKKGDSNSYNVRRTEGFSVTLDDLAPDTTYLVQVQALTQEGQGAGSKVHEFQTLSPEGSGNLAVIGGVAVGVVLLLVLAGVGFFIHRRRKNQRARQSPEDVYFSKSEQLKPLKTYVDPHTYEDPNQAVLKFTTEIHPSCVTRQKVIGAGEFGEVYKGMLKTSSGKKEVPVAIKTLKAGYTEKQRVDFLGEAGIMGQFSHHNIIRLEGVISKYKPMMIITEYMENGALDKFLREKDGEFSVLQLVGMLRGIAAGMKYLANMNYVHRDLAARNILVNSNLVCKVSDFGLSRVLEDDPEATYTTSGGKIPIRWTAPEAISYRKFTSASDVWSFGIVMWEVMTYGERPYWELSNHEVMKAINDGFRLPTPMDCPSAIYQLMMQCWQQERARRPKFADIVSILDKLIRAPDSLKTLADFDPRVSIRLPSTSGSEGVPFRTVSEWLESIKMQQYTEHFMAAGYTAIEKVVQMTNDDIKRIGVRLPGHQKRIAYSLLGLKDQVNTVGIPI

SMILES: COc1cc(Nc2nc(C)cc(-c3cnn4nc(OC)ccc34)n2)cc(C(F)(F)F)c1
% of control [1]: 78% | % of control [2]: 100%

SMILES: CN(C)C/C=C/C(=O)Nc1ccc(C(=O)N2CCCC(Nc3ncc(Cl)c(-c4c[nH]c5ccccc45)n3)C2)cc1 (centres undefined)
% of control [3]: 98%

% of inhibition [4]: -6%
SMILES: Cc1ccc(-c2ccc3c(ccc4sc5c(c43)NC[C@@H](C)NC5=O)n2)cn1
